{"source": "patent US7541021B2", "about": "“Process for preparation of a sterile suspension of corticosteroid particles for the administration by inhalation” (Chiesi Farmaceutici S.p.A., priority 2002, dated 2009)", "key": {"[1]": {"tested_on": "microsomes of human lung cells", "assay": "Formation of fatty acid esters of 17-BMP in lung microsomes", "assay_type": "in vitro ADME"}, "[2]": {"assay": "Elimination of 17-BMP after nebulisation of aqueous BDP suspensions versus pressurised aerosol suspensions", "assay_type": "in vivo", "settings": "after aqueous suspensions of BDP by nebulisation, compared with suspension formulations as pressurised aerosols", "excerpt": "It has also been observed that due to the formation of the monoester in the lung cells, the elimination half-life and the mean residence time of 17-BMP are longer after the administration of aqueous suspensions of BDP by nebulisation than formulations in suspension administered in the form of pressurised aerosols."}, "[3]": {"assay": "Apparent volumes and densities (European Pharmacopoeia 2.9.15) of micronised BDP powder", "assay_type": "physicochemical", "settings": "for dv, apparent density before settling: 100 g in 250 ml cylinder; for ds, apparent density after packing: after compacting", "method": "The apparent volumes and densities were measured according to the European Pharmacopoeia, 4th edition, paragraph 2.9.15. 100 g of the test substance is introduced into a dry 250 ml cylinder without compacting it. The unsettled apparent volume (Vo) is read off, then 10, 500 and 1250 taps are performed, and volumes (V10, V500 and V1250) are read. If the difference between V500 and V1250 is greater than 2 ml, 1250 further taps are performed (V2500)."}, "[4]": {"assay": "Particle size of micronised BDP by Malvern apparatus", "assay_type": "physicochemical", "settings": "micronised powder", "method": "The dimensional characteristics of the particles were also evaluated by using a Malvern apparatus. This type of test exploits the diffraction of a laser beam by the particles to determine the size distribution of the particles in suspension. The parameter considered is the median volumetric diameter in μm of 10%, 50% and 90% of the particles, expressed as d(v,0.1), d(v,0.5) and d(v,0.9) respectively, which is determined by assuming that the particles have a geometrical shape equivalent to a sphere. Advantageously, in the suspension formulation of the invention, the d(v,0.9) after sonication is less than 8 μm and the d(v,0.5) is comprised between 2 and 3.5 μm."}}}
{"smiles": "CCC(=O)O[C@]1(C(=O)CO)[C@@H](C)C[C@H]2[C@@H]3CCC4=CC(=O)C=C[C@]4(C)[C@@]3(Cl)[C@@H](O)C[C@@]21C", "note": "[17-BMP, beclomethasone-17-monopropionate]", "values": [{"measurement": "Formation of stable esters with long-chain fatty acids such as oleic acid", "setting": "[1]", "result": "are formed"}, {"measurement": "elimination half-life", "setting": "[2]", "result": "longer"}, {"measurement": "mean residence time", "setting": "[2]", "result": "longer"}]}
{"smiles": "CCC(=O)OCC(=O)[C@@]1(OC(=O)CC)[C@@H](C)C[C@H]2[C@@H]3CCC4=CC(=O)C=C[C@]4(C)[C@@]3(Cl)[C@@H](O)C[C@@]21C", "note": "[Non-irradiated BDP, beclomethasone dipropionate]", "values": [{"measurement": "Cs, packing capacity (difference between V10 and V500)", "setting": "[3]", "result": 16, "unit": "mL"}, {"measurement": "dv, apparent density before settling", "setting": "[3]", "result": 0.21, "unit": "g/mL"}, {"measurement": "ds, apparent density after packing", "setting": "[3]", "result": 0.27, "unit": "g/mL"}, {"measurement": "Particle size d (v, 0.1)", "setting": "[4]", "result": 0.49, "unit": "μm"}, {"measurement": "Particle size d (v, 0.5)", "setting": "[4]", "result": 1.91, "unit": "μm"}, {"measurement": "Particle size d (v, 0.9)", "setting": "[4]", "result": 5.98, "unit": "μm"}]}
{"smiles": "CCC(=O)OCC(=O)[C@@]1(OC(=O)CC)[C@@H](C)C[C@H]2[C@@H]3CCC4=CC(=O)C=C[C@]4(C)[C@@]3(Cl)[C@@H](O)C[C@@]21C", "note": "[Irradiated BDP, beclomethasone dipropionate]", "values": [{"measurement": "Cs, packing capacity (difference between V10 and V500)", "setting": "[3]", "result": 12, "unit": "mL"}, {"measurement": "dv, apparent density before settling", "setting": "[3]", "result": 0.32, "unit": "g/mL"}, {"measurement": "ds, apparent density after packing", "setting": "[3]", "result": 0.42, "unit": "g/mL"}, {"measurement": "Particle size d (v, 0.1)", "setting": "[4]", "result": 0.48, "unit": "μm"}, {"measurement": "Particle size d (v, 0.5)", "setting": "[4]", "result": 1.81, "unit": "μm"}, {"measurement": "Particle size d (v, 0.9)", "setting": "[4]", "result": 5.73, "unit": "μm"}]}
